The results in this text go back to US9260435B2, “Substituted imidazopyrazines as Akt kinase inhibitors” (Bayer Intellectual Property GmbH, priority 2012, dated 2016).

Experiment [1] deals with His-tagged human recombinant kinase full-length Akt2 (Homo sapiens (Human), UniProt P31751). The experiment is described as follows: Akt2 kinase assay (TR-FRET). It counts as biochemical. The conditions noted are these: 10 μM ATP, read-out: Akt2, median IC50. From the text: Biological Assay 2.0: Akt2 Kinase Assay
Akt2 inhibitory activity of compounds of the present invention was quantified employing the Akt2 TR-FRET assay as described in the following paragraphs.
His-tagged human recombinant kinase full-length Akt2 expressed in insect cells and activated by PDK1 was purchased from Invitrogen (part number PV 3975). As substrate for the kinase reaction the biotinylated peptide biotin-Ahx-KKLNRTLSFAEPG (C-terminus in amide form) was used which can be purchased e.g. from the company Biosynthan GmbH (Berlin-Buch, Germany).
(§1) For the assay 50 nl of a 100 fold concentrated solution of the test compound in DMSO was pipetted into a black low volume 384 well microtiter plate (Greiner Bio-One, Frickenhausen, Germany), 2 μl of a solution of Akt2 in assay buffer [50 mM TRIS/HCl pH 7.5, 5 mM MgCl2, 1 mM dithiothreitol, 0.02% (v/v) Triton X-100 (Sigma)] were added and the mixture was incubated for 15 min at 22° C. to allow prebinding of the test compounds to the enzyme before the start of the kinase reaction. Then the kinase reaction was started by the addition of 3 μl of a solution of adenosine-tri-phosphate (ATP, 16.7 μM=>final conc. in the 5 μl assay volume is 10 μM) and substrate (1.67 μM=>final conc. in the 5 μl assay volume is 1 μM) in assay buffer and the resulting mixture was incubated for a reaction time of 60 min at 22° C. The concentration of Akt2 in the assay was adjusted depending of the activity of the enzyme lot and was chosen appropriate to have the assay in the linear range, typical enzyme concentrations were in the range of about 0.2 ng/μl (final conc. in the 5 μl assay volume).
(§2) The reaction was stopped by the addition of 5 μl of a solution of HTRF detection reagents (200 nM streptavidine-XL665 [Cisbio] and 1.5 nM anti-phosho-Serine antibody [Millipore, cat. #35-001] and 0.75 nM LANCE Eu-W 1024 labeled anti-mouse IgG antibody [Perkin Elmer]) in an aqueous EDTA-solution (100 mM EDTA, 0.1% (w/v) bovine serum albumin in 50 mM HEPES/NaOH pH 7.5).
(§3) The resulting mixture was incubated 1 h at 22° C. to allow the binding of the biotinylated phosphorylated peptide to the streptavidine-XL665 and the antibodies. Subsequently the amount of phosphorylated substrate was evaluated by measurement of the resonance energy transfer from the anti-mouse-IgG-Eu-Chelate to the streptavidine-XL665. Therefore, the fluorescence emissions at 620 nm and 665 nm after excitation at 350 nm was measured in a TR-FRET reader, e.g. a Rubystar (BMG Labtechnologies, Offenburg, Germany) or a Viewlux (Perkin-Elmer). The ratio of the emissions at 665 nm and at […] was taken as the measure for the amount of phosphorylated substrate. The data were normalised (enzyme reaction without inhibitor=0% inhibition, all other assay components but no enzyme=100% inhibition).

Experiment [2] concerns the target His-tagged human recombinant kinase full-length Akt1 (Homo sapiens (Human), UniProt P31749). Put plainly: Akt1 kinase assay (TR-FRET). It counts as biochemical. As to conditions: 10 μM ATP, read-out: Akt1, median IC50.
From the text: Biological Assay 1.0: Akt1 Kinase Assay
Akt1 inhibitory activity of compounds of the present invention was quantified employing the Akt1 TR-FRET assay as described in the following paragraphs.
His-tagged human recombinant kinase full-length Akt1 expressed in insect cells was purchased form Invitrogen (part number PV 3599). As substrate for the kinase reaction the biotinylated peptide biotin-Ahx-KKLNRTLSFAEPG (C-terminus in amide form) was used which can be purchased e.g. from the company Biosynthan GmbH (Berlin-Buch, Germany).
as §1, with “Akt1” for “Akt2”, “0.05” for “0.2”
as §2
as §3, with “HTRF” for “TR-FRET”
In general terms: TR-FRET usually uses a lanthanide donor and a delayed reading to cut background.

The test system of experiment [3] is MCF-7 breast tumour cell line. The experiment is described as follows: Tumor cell proliferation assay (CellTiter-Glo, 72 h), MCF-7. It counts as cell-based. The conditions noted are these: Homo sapiens, MCF7, 72 h drug exposure. As for the experimental part:
(§4) Biological Assay 4.0: Tumor Cell Proliferation Assays
(§5) Compounds were tested in a cell-based assay that measures the capacity of the compounds to inhibit tumour cell proliferation following a 72 h drug exposure. Cell viability is determined using CellTiter-Glow® (CTG, Promega, cat# G7571/2/3). The CellTiter-Glo® Luminescent Cell Viability Assay is a homogeneous method to determine the number of viable cells in culture. Detection is based on using the luciferase reaction to measure the amount of ATP from viable cells. The amount of ATP in cells correlates with cell viability. Within minutes after a loss of membrane integrity, cells lose the ability to synthesize ATP, and endogenous ATPases destroy any remaining ATP; thus the levels of ATP fall precipitously.
(§6) Cells were plated at 3000-5000 cells/well (depending on the cell lines) in 90 μL growth medium on MTPs (Corning; #3603, black plate, clear flat bottom). For each cell line assayed, cells were plated onto a separate plate for determination of […] at t=0 hour and t=72 hour time points. Following overnight incubation at 37° C., chemiluminescence values for the t=0 samples were determined after adding 10 μl medium and 100 μl CTG solution according to manufacture protocol. Plates for the t=72 hour time points were treated with compounds diluted into growth medium at ten times final concentration added in 10 μL to the cell culture plate. Cells were then incubated for 72 hours at 37° C. Chemiluminescence values for the t=72 hour samples were determined. […] Experiments were controlled using a reference compound as standard.
(§7) Preferred compounds of the present invention show in this assay an inhibition of cell growth of cell lines such as the KPL-4 breast cancer cell line and the MCF-7 breast tumour cell line ([…], hormone dependent) with a median IC50 of <10 μM, more preferably, median IC50≦1 μM.
(In ATP-based viability assays light output follows the ATP content of the culture.)

For a further experiment, the system named is phospho-AKT at S473. Put plainly: Cellular p-AKT1/2/3-S473 assay in KPL-4 cells. The class given is cell-based. The conditions noted are these: Homo sapiens, KPL4; KPL-4 breast tumour cell line, 2 hours treatment; read-out: pAKT-S743 median IC50. On the procedure: The phospho-substrates of PI3K-AKT-mTOR axis were used as the readouts to reflect pathway inhibition. Cells were seeded at 60-80% confluency per well in 96-well cell culture plates. After overnight incubation at 37° C. 5% CO2, cells were treated with compounds and vehicle at 37° C. for 2 hours. […] All measurements where at least done in duplicates and confirmed by independent repetition. Alternatively pAKT-S473 was measured using the “Akt Duplex” of the MULTI-SPOT® Assay System (Fa. Meso Scale Discovery, Cat# N41100B-1) following manufacturers instructions. Each assay used 20 μg of protein extract and measured total AKT and p-AKT content simultaneously in one well. All measurements where at least done in duplicates and confirmed by independent repetition. Values for P-AKT are expressed as percentage of P-AKT level compared to total-AKT content of the extracts.

Experiment [4] concerns KPL-4 breast cancer cell line. Put plainly: Tumor cell proliferation assay (CellTiter-Glo, 72 h), KPL-4. The class given is cell-based. As to conditions: Homo sapiens, KPL4, 72 h drug exposure. As for the experimental part: as §4, §5, §6, §7
The next experiment relates to p-4E-BP1 at T70. Put plainly: Cellular p-4E-BP1-T70 assay in KPL-4 cells. The class given is cell-based. As to conditions: Homo sapiens, KPL4; KPL-4 breast tumour cell line, 2 hours treatment; read-out: P4EBP1-T70 median IC50. On the procedure:
The molecular mechanism of action was investigated in a set of experiments to assess the inhibition of the PI3K-AKT-mTOR pathway in responsive cell lines such as KPL-4 breast tumour cell line (PIK3CA^H1047R, HER2^O/E and hormone independent). The phospho-substrates of PI3K-AKT-mTOR axis were used as the readouts to reflect pathway inhibition. Cells were seeded at 60-80% confluency per well in 96-well cell culture plates. After overnight incubation at 37° C. 5% CO2, cells were treated with compounds and vehicle at 37° C. for 2 hours. Thereafter, cells were lysed in 150 μl lysis buffer and the levels of phospho-AKT at T308 and S473 and p-4E-BP1 at T70 sites were determined with the corresponding AlphaScreen® SureFire® assay kits (Perkin Elmer: 4E-BP1 Assay Kit Cat # TRG4E2S10K; Akt 1/2/3 p-Ser 473 #TGRA4S500 and Akt 1/2/3 p-Thr 308 #TGRA3S500 as well as IgG detection Kit #6760617M) as described in the manuals. All measurements where at least done in duplicates and confirmed by independent repetition. Alternatively pAKT-S473 was measured using the “Akt Duplex” of the MULTI-SPOT® Assay System (Fa. Meso Scale Discovery, Cat# N41100B-1) following manufacturers instructions. Each assay used 20 μg of protein extract and measured total AKT and p-AKT content simultaneously in one well. All measurements where at least done in duplicates and confirmed by independent repetition. Values for P-AKT are expressed as percentage of P-AKT level compared to total-AKT content of the extracts.

Chain of His-tagged human recombinant kinase full-length Akt1 (P31749 whole entry): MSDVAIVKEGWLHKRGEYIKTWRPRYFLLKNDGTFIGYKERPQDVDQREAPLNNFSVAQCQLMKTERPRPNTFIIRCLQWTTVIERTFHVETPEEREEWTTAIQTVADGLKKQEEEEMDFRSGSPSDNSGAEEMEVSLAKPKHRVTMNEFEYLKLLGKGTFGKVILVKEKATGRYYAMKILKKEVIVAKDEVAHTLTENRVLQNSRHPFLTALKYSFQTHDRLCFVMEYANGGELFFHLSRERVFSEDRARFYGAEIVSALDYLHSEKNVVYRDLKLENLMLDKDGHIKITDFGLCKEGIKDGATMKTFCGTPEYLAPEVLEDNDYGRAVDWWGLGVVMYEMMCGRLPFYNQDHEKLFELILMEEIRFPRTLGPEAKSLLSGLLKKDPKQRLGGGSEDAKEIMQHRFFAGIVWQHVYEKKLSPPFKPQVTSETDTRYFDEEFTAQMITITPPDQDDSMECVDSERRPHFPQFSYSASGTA
Chain of His-tagged human recombinant kinase full-length Akt2 (P31751 whole entry): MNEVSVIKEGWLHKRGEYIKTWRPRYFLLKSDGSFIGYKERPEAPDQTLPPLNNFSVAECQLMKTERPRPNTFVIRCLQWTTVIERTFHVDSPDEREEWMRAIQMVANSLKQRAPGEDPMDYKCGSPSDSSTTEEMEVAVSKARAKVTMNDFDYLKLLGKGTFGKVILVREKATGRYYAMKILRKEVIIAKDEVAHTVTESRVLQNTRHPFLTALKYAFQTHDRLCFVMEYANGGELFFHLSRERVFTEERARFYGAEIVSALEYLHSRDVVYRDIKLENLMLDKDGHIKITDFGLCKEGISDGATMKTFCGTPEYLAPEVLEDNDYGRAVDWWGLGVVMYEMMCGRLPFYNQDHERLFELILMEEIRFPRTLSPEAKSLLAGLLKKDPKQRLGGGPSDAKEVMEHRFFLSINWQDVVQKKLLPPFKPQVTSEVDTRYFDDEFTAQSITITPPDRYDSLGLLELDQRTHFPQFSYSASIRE

Turning to `NC1(c2ccc(-c3nc4c(O)nccn4c3-c3ccccc3)cc2)CCC1` [Example 1, 2-[4-(1-Aminocyclobutyl)phenyl]-3-phenylimidazo[1,2-a]pyrazin-8-ol], the results for the IC50 in experiment [1] and in experiment [2] were 970 nM and 1600 nM, respectively.
`CCOC(=O)c1cn2c(-c3ccccc3)c(-c3ccc(C4(N)CCC4)cc3)nc2cn1` [Example 5, Ethyl 2-[4-(1-aminocyclobutyl)phenyl]-3-phenylimidazo[1,2-a]pyrazine-6-carboxylate]: the inhibition at 1.67 µM in experiment [3] (1.67 μM, read-out: MCF-7 median inhibition at 1.67 μM (%)) was 40.6%; in experiment [4] (1.67 μM, read-out: KPL-4 median inhibition at 1.67 μM (%)) it was 15.2%. Also, the IC50 was 2400 nM in experiment [3], 37 nM in the experiment with phospho-AKT at S473, 10000 nM in experiment [4] and 29 nM in the experiment on p-4E-BP1 at T70.

What is called IC50 is the point on the concentration scale where inhibition reaches its midpoint. By inhibition is commonly meant the percentage by which the read-out fell short of the control.
